{"source": "patent US7122353B2", "about": "“Targeted carrier fusions for delivery of chemotherapeutic agents” (Wisconsin Alumni Research Foundation, priority 2003, dated 2006)", "molecules": {"B1": {"name": "native CagA: His-tagged native C-1027 apo-protein encoded by the cagA gene of Streptomyces globisporus; negative control (protein)", "chain": "APAFSVSPASGLSDGQSVSVSVSGAAAGETYYIAQCAPVGGQDACNPATATSFTTDASGAASFSFVVRKSYTGSTPEGTPVGSVDCATAACNLGAGNSGLDLGHVALTFG", "modifications": "left off: small tags and cut ends", "notes": "His-tagged native C-1027 apo-protein encoded by the cagA gene of Streptomyces globisporus; negative control"}, "B2": {"name": "native NcsA: His-tagged native neocarzinostatin apo-protein encoded by the ncsA gene of Streptomyces carzinostaticus; negative control (protein)", "chain": "AAPTATVTPSSGLSDGTVVKVAGAGLQAGTAYDVGQCAWVDTGVLACNPADFSSVTADANGSASTSLTVRRSFEGFLFDGTRWGTVDCTTAACQVGLSDAAGNGPEGVAISFN", "modifications": "left off: small tags and cut ends", "notes": "His-tagged native neocarzinostatin apo-protein encoded by the ncsA gene of Streptomyces carzinostaticus; negative control"}}, "key": {"[1]": {"settings": "cited from earlier work"}, "prostates cancers": {"test_system": "prostates cancers", "settings": "mouse, in vivo; cited from earlier work"}, "[2]": {"test_system": "cancer cell lines (WM115, KS1617)", "assay": "Fluorescence imaging of binding of IC3-OSu-labeled carrier proteins to cancer cells", "assay_type": "cell-based", "settings": "100 μl of 0.1 mg/ml labeled protein, about 10 min, room temperature, washed 3 times with PBS", "protocol": "WM115 (high-level expression of αvβ3 integrin) and MCF7 (low level expression of αvβ3 integrin, about 10% of WM115) cell lines were grown in α MEM medium enriched with 10% fetal bovine serum (FBS) and 60 μg/ml of penicillin and 100 μg/ml of streptomycin. KS1617 cell line (high-level expression of CD13) was grown in RPMI1640 medium also enriched with 10% FBS and 60 μg/ml of penicillin and 100 μg/ml of streptomycin. The cell cultures were passed to fresh medium every 2–3 days. For fluorescent imaging, the cells were grown in 4-well culture slides to about 70% confluence before use.\nTo facilitate detection, the recombinant CTP-containing carrier proteins were labeled with Dojindo IC3-Osu, which reacts with lysine residues of the protein, according to the recommended protocols by the manufacturer (Dojindo, Gaithersburg, Md.) (FIG. 5). About 0.5 mg/ml protein was reacted with 3-fold excess of the fluorescent dye in dark at room temperature for 1 hr, and the extra dye was removed using Bio-Rad Econo-Pac desalting column. The labeling efficiency was measured using UV-vis spectroscopy. On average, about 25–35% of protein molecules were labeled.\nThe binding specificity between CTP-containing carrier proteins and various cancer cell lines was evaluated with both the native carrier proteins and normal cell lines as negative controls. […]"}}, "note": "Where a name gives a salt, the structure may show the parent alone. Numbered stars: 1 amine (or outer) side, 2 acyl side, 3 side chain; on linkers, the order of the positions; unused ones are H or OH. Bridge positions count the residues as written; N and C are the ends. Square brackets hold non-standard residues; d marks the D form. Peptide text beside a SMILES is read from it. I, II: the chains in the order shown. Actinocin(9to1) = Cc1c2oc3c(C)ccc(C(=O)[*:1])c3nc-2c(C(=O)[*:2])c(N)c1=O; NMeV = CN[C@H](C(=O)O)C(C)C; Sar = CNCC(=O)O", "data": [{"molecule": "Cc1c2oc3c(C)ccc(C(=O)N[C@@H]4C(=O)N[C@H](C(C)C)C(=O)N5CCC[C@H]5C(=O)N(C)CC(=O)N(C)[C@@H](C(C)C)C(=O)O[C@@H]4C)c3nc-2c(C(=O)N[C@@H]2C(=O)N[C@H](C(C)C)C(=O)N3CCC[C@H]3C(=O)N(C)CC(=O)N(C)[C@@H](C(C)C)C(=O)O[C@@H]2C)c(N)c1=O", "note": "[Actinomycin D] (I: T[dV]P[Sar][NMeV] / II: T[dV]P[Sar][NMeV]; ester I:1-I:C, II:1-II:C; linker I:N-II:N via Actinocin(9to1))", "values": [{"measurement": "part of the dose excreted intact into the bile", "setting": "[1]; in vivo", "result": "Half of the dose"}]}, {"molecule": "COc1cccc2c1C(=O)c1c(O)c3c(c(O)c1C2=O)C[C@@](O)(C(C)=O)C[C@@H]3O[C@H]1C[C@H](N)[C@H](O)[C@H](C)O1", "note": "[Daunorubicin, 5,12-Naphthacenedione, (8S-cis)-8-acetyl-10-((3-amino-2,3,6-trideoxy-a-L-lyxo-hexanopyranosyl)oxy)-7,8,9,10-tetrahydro-6,8,11-trihydroxy-10-methoxy-, hydrochloride]", "values": [{"measurement": "secreted into the bile", "setting": "[1]; in vivo", "result": "about 40%"}]}, {"molecule": "SMSIARL [cancer-targeting peptide for prostate cancer]", "values": [{"measurement": "targeting to prostates cancers relative to other organs", "setting": "prostates cancers", "result": "10–15 times"}]}, {"molecule": "CC[C@]1(O)C[C@@H]2CN(CCc3c([nH]c4ccccc34)[C@@](C(=O)OC)(c3cc4c(cc3OC)N(C)[C@H]3[C@@](O)(C(=O)OC)[C@H](OC(C)=O)[C@]5(CC)C=CCN6CC[C@]43[C@@H]65)C2)C1", "note": "[Vinblastine]", "values": [{"measurement": "plasma half-life after distribution (first value)", "setting": "[1]; after intravenous injection", "result": "approximately 1 hours"}, {"measurement": "plasma half-life after distribution (second value)", "setting": "[1]; after intravenous injection", "result": "~20", "unit": "h"}]}, {"molecule": "B1", "values": [{"measurement": "fluorescence detected on cells after incubation with labeled protein", "setting": "[2]", "result": "no significant fluorescence"}]}, {"molecule": "B2", "values": [{"measurement": "fluorescence detected on cells after incubation with labeled protein", "setting": "[2]", "result": "no significant fluorescence"}]}]}
